Laboratory results reported in PubChem BioAssay AID1963451 (Molecular Pharmacology Branch, DTP, NCI, 2024).
Several values for one entry are separate records, joined by “and”; a condition that tells them apart may be missing. Identical values can stand only once.

Tested on: 521955-158-R6-J3-PDC complex spheroid growth, % test/control
Assay: Anticancer human tumor 521955-158-R6-J3-PDC patient-derived pancreatic carcinoma cell line growth inhibition [Asc]
Conditions: for viability, T/C: stronger effect = lower value
Procedure, shortened: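 Complex solid-tumor spheroids incorporating human endothelial and mesenchymal stem cells received single agents or combinations over half-log dilution ranges anchored to clinical Cmax.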
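Also: spheroids exposed to compounds for 7 days.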
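For viability, T/C in this document: 100% = DMSO vehicle control wells.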

**Q.** How did the IC50 (curve of first compound, second compound 0.00949 µM) turn out when `Cn1ncnc1[C@H]1c2n[nH]c(=O)c3cc(F)cc(c23)N[C@@H]1c1ccc(F)cc1` + CCN1C(C(=O)NC23CCC(C(=O)O)(CC2)CC3)C(c2cccc(Cl)c2F)C2(C(=O)Nc3cc(Cl)ccc32)C12CCCCC2 was run?
**A.** > 0.1 µM

**Q.** And the IC50 (curve of first compound, second compound 0.03 µM)?
**A.** > 0.1 µM

**Q.** What about the IC50 (curve of first compound, second compound 0.0949 µM) of the same compound?
**A.** > 0.1 µM

**Q.** What about the IC50 (curve of first compound, second compound 0.3 µM) of the same compound?
**A.** > 0.1 µM

**Q.** What about the IC50 (curve of first compound, second compound 0.949 µM) of the same compound?
**A.** > 0.1 µM

**Q.** And the IC50 (curve of first compound, second compound 3 µM)?
**A.** > 0.1 µM

**Q.** And the viability, T/C (second compound 0.00949 µM, first compound 0.000316 µM)?
**A.** 114%

**Q.** What about the viability, T/C (second compound 0.00949 µM, first compound 0.001 µM) of the same compound?
**A.** 102%

**Q.** And the viability, T/C (second compound 0.00949 µM, first compound 0.00316 µM)?
**A.** 98.8%

**Q.** What about the viability, T/C (second compound 0.00949 µM, first compound 0.01 µM) of the same compound?
**A.** 91.7%

**Q.** What about the viability, T/C (second compound 0.00949 µM, first compound 0.0316 µM) of the same compound?
**A.** 78.9%

**Q.** And the viability, T/C (second compound 0.00949 µM, first compound 0.1 µM)?
**A.** 91.2%

**Q.** What about the viability, T/C (second compound 0.03 µM, first compound 0.000316 µM) of the same compound?
**A.** 100%

**Q.** And the viability, T/C (second compound 0.03 µM, first compound 0.001 µM)?
**A.** 94.1%

**Q.** And the viability, T/C (second compound 0.03 µM, first compound 0.00316 µM)?
**A.** 100%

**Q.** What about the viability, T/C (second compound 0.03 µM, first compound 0.01 µM) of the same compound?
**A.** 99.5%

**Q.** And the viability, T/C (second compound 0.03 µM, first compound 0.0316 µM)?
**A.** 97.5%

**Q.** What about the viability, T/C (second compound 0.03 µM, first compound 0.1 µM) of the same compound?
**A.** 94.6%

**Q.** And the viability, T/C (second compound 0.0949 µM, first compound 0.000316 µM)?
**A.** 95.7%

**Q.** What about the viability, T/C (second compound 0.0949 µM, first compound 0.001 µM) of the same compound?
**A.** 94.8%

**Q.** What about the viability, T/C (second compound 0.0949 µM, first compound 0.00316 µM) of the same compound?
**A.** 101%

**Q.** What about the viability, T/C (second compound 0.0949 µM, first compound 0.01 µM) of the same compound?
**A.** 102%

**Q.** And the viability, T/C (second compound 0.0949 µM, first compound 0.0316 µM)?
**A.** 94.3%

**Q.** And the viability, T/C (second compound 0.0949 µM, first compound 0.1 µM)?
**A.** 98.9%

**Q.** What about the viability, T/C (second compound 0.3 µM, first compound 0.000316 µM) of the same compound?
**A.** 97.2%

**Q.** What about the viability, T/C (second compound 0.3 µM, first compound 0.001 µM) of the same compound?
**A.** 97.7%

**Q.** What about the viability, T/C (second compound 0.3 µM, first compound 0.00316 µM) of the same compound?
**A.** 99.4%

**Q.** And the viability, T/C (second compound 0.3 µM, first compound 0.01 µM)?
**A.** 80.5%

**Q.** And the viability, T/C (second compound 0.3 µM, first compound 0.0316 µM)?
**A.** 98.3%

**Q.** What about the viability, T/C (second compound 0.3 µM, first compound 0.1 µM) of the same compound?
**A.** 102%

**Q.** What about the viability, T/C (second compound 0.949 µM, first compound 0.000316 µM) of the same compound?
**A.** 104%

**Q.** What about the viability, T/C (second compound 0.949 µM, first compound 0.001 µM) of the same compound?
**A.** 100%

**Q.** And the viability, T/C (second compound 0.949 µM, first compound 0.00316 µM)?
**A.** 114%

**Q.** What about the viability, T/C (second compound 0.949 µM, first compound 0.01 µM) of the same compound?
**A.** 87.5%

**Q.** And the viability, T/C (second compound 0.949 µM, first compound 0.0316 µM)?
**A.** 96.3%

**Q.** What about the viability, T/C (second compound 0.949 µM, first compound 0.1 µM) of the same compound?
**A.** 99.8%

**Q.** What about the viability, T/C (second compound 3 µM, first compound 0.000316 µM) of the same compound?
**A.** 100%

**Q.** And the viability, T/C (second compound 3 µM, first compound 0.001 µM)?
**A.** 90.4%

**Q.** And the viability, T/C (second compound 3 µM, first compound 0.00316 µM)?
**A.** 108%

**Q.** And the viability, T/C (second compound 3 µM, first compound 0.01 µM)?
**A.** 82%

**Q.** What about the viability, T/C (second compound 3 µM, first compound 0.0316 µM) of the same compound?
**A.** 98.6%

**Q.** And the viability, T/C (second compound 3 µM, first compound 0.1 µM)?
**A.** 99%

**Q.** What does the source list for `COc1c(OCCCN2CCOCC2)ccc2c3n(c(=NC(=O)c4cnc(N)nc4)nc12)CCN3`?
**A.** viability, T/C (compound 0.00316 µM): 83.2% and 98.8% and 91.5%; viability, T/C (compound 0.01 µM): 97.2% and 78.8% and 72.1%; viability, T/C (compound 0.0316 µM): 76.5% and 75.6% and 63.8%; viability, T/C (compound 0.1 µM): 62.5% and 81.4% and 64.8%; viability, T/C (compound 0.316 µM): 41.9% and 61.3% and 48.6%; viability, T/C (compound 1 µM): 34.7% and 40% and 32.8%; IC50 (curve of compound): 0.592 µM and 0.275 µM and 0.177 µM

**Q.** With `NC(=O)C(=Cn1cnc(-c2cc(C(F)(F)F)cc(C(F)(F)F)c2)n1)c1cncnc1` + CNC(C)C(=O)NC1CN(S(=O)(=O)c2cccc(S(=O)(=O)N3CCC4CCC(C(=O)NC(c5ccccc5)c5ccccc5)N4C(=O)C(NC(=O)C(C)NC)C3)c2)CCC2CCC(C(=O)NC(c3ccccc3)c3ccccc3)N2C1=O as the compound, how does the IC50 (curve of first compound, second compound 0.00316 µM) read?
**A.** > 0.3 µM

**Q.** And the IC50 (curve of first compound, second compound 0.01 µM)?
**A.** > 0.3 µM

**Q.** What about the IC50 (curve of first compound, second compound 0.0316 µM) of the same compound?
**A.** > 0.3 µM

**Q.** What about the IC50 (curve of first compound, second compound 0.1 µM) of the same compound?
**A.** > 0.3 µM

**Q.** And the IC50 (curve of first compound, second compound 0.316 µM)?
**A.** > 0.3 µM

**Q.** And the IC50 (curve of first compound, second compound 1 µM)?
**A.** > 0.3 µM

**Q.** What about the viability, T/C (second compound 0.00316 µM, first compound 0.000949 µM) of the same compound?
**A.** 114%

**Q.** What about the viability, T/C (second compound 0.00316 µM, first compound 0.003 µM) of the same compound?
**A.** 122%

**Q.** And the viability, T/C (second compound 0.00316 µM, first compound 0.00949 µM)?
**A.** 119%

**Q.** What about the viability, T/C (second compound 0.00316 µM, first compound 0.03 µM) of the same compound?
**A.** 104%

**Q.** And the viability, T/C (second compound 0.00316 µM, first compound 0.0949 µM)?
**A.** 93.9%

**Q.** What about the viability, T/C (second compound 0.00316 µM, first compound 0.3 µM) of the same compound?
**A.** 66.5%

**Q.** And the viability, T/C (second compound 0.01 µM, first compound 0.000949 µM)?
**A.** 71%

**Q.** What about the viability, T/C (second compound 0.01 µM, first compound 0.003 µM) of the same compound?
**A.** 69.2%

**Q.** What about the viability, T/C (second compound 0.01 µM, first compound 0.00949 µM) of the same compound?
**A.** 59.2%

**Q.** And the viability, T/C (second compound 0.01 µM, first compound 0.03 µM)?
**A.** 81.7%

**Q.** And the viability, T/C (second compound 0.01 µM, first compound 0.0949 µM)?
**A.** 83.7%

**Q.** And the viability, T/C (second compound 0.01 µM, first compound 0.3 µM)?
**A.** 75.5%

**Q.** And the viability, T/C (second compound 0.0316 µM, first compound 0.000949 µM)?
**A.** 79.5%

**Q.** What about the viability, T/C (second compound 0.0316 µM, first compound 0.003 µM) of the same compound?
**A.** 59.5%

**Q.** And the viability, T/C (second compound 0.0316 µM, first compound 0.00949 µM)?
**A.** 63.9%

**Q.** What about the viability, T/C (second compound 0.0316 µM, first compound 0.03 µM) of the same compound?
**A.** 62.9%

**Q.** And the viability, T/C (second compound 0.0316 µM, first compound 0.0949 µM)?
**A.** 79.6%

**Q.** What about the viability, T/C (second compound 0.0316 µM, first compound 0.3 µM) of the same compound?
**A.** 66.6%

**Q.** And the viability, T/C (second compound 0.1 µM, first compound 0.000949 µM)?
**A.** 65.7%

**Q.** What about the viability, T/C (second compound 0.1 µM, first compound 0.003 µM) of the same compound?
**A.** 69%

**Q.** What about the viability, T/C (second compound 0.1 µM, first compound 0.00949 µM) of the same compound?
**A.** 65.2%

**Q.** And the viability, T/C (second compound 0.1 µM, first compound 0.03 µM)?
**A.** 58.7%

**Q.** And the viability, T/C (second compound 0.1 µM, first compound 0.0949 µM)?
**A.** 75.2%

**Q.** What about the viability, T/C (second compound 0.1 µM, first compound 0.3 µM) of the same compound?
**A.** 75.1%

**Q.** What about the viability, T/C (second compound 0.316 µM, first compound 0.000949 µM) of the same compound?
**A.** 61%

**Q.** And the viability, T/C (second compound 0.316 µM, first compound 0.003 µM)?
**A.** 69.9%

**Q.** And the viability, T/C (second compound 0.316 µM, first compound 0.00949 µM)?
**A.** 70.3%

**Q.** And the viability, T/C (second compound 0.316 µM, first compound 0.03 µM)?
**A.** 71%

**Q.** What about the viability, T/C (second compound 0.316 µM, first compound 0.0949 µM) of the same compound?
**A.** 68%

**Q.** What about the viability, T/C (second compound 0.316 µM, first compound 0.3 µM) of the same compound?
**A.** 70.2%

**Q.** What about the viability, T/C (second compound 1 µM, first compound 0.000949 µM) of the same compound?
**A.** 54.4%

**Q.** And the viability, T/C (second compound 1 µM, first compound 0.003 µM)?
**A.** 66.9%

**Q.** What about the viability, T/C (second compound 1 µM, first compound 0.00949 µM) of the same compound?
**A.** 70%

**Q.** What about the viability, T/C (second compound 1 µM, first compound 0.03 µM) of the same compound?
**A.** 60.6%

**Q.** And the viability, T/C (second compound 1 µM, first compound 0.0949 µM)?
**A.** 86.1%

**Q.** What about the viability, T/C (second compound 1 µM, first compound 0.3 µM) of the same compound?
**A.** 62%
